Where “and” joins values, the source holds several entries; their conditions need not be identical. Equal entries are not always repeated. Where two headings read alike, the source gives them in different places.
What was measured:
PI3K-α = PI3K-α (Homo sapiens, UniProt P42336); test: PI3K-alpha fluorescence polarization assay
[1] = test system: human prostate LNCap tumor cell line; test: In vitro cell culture growth assay (MTS), LNCap; conditions: read-out: IC50 LNCap
Human mTOR (FLAG-TOR) = Human mTOR (FLAG-TOR) (Homo sapiens, UniProt P42345); test: mTOR kinase assay (DELFIA format, purified enzyme); type: biochemical; conditions: read-out: IC50 mTOR
PI3K-γ = PI3K-γ (Homo sapiens, UniProt P48736); test: PI3K-gamma fluorescence polarization assay
PI3K-γ, sequence (P48736 whole entry, species assumed): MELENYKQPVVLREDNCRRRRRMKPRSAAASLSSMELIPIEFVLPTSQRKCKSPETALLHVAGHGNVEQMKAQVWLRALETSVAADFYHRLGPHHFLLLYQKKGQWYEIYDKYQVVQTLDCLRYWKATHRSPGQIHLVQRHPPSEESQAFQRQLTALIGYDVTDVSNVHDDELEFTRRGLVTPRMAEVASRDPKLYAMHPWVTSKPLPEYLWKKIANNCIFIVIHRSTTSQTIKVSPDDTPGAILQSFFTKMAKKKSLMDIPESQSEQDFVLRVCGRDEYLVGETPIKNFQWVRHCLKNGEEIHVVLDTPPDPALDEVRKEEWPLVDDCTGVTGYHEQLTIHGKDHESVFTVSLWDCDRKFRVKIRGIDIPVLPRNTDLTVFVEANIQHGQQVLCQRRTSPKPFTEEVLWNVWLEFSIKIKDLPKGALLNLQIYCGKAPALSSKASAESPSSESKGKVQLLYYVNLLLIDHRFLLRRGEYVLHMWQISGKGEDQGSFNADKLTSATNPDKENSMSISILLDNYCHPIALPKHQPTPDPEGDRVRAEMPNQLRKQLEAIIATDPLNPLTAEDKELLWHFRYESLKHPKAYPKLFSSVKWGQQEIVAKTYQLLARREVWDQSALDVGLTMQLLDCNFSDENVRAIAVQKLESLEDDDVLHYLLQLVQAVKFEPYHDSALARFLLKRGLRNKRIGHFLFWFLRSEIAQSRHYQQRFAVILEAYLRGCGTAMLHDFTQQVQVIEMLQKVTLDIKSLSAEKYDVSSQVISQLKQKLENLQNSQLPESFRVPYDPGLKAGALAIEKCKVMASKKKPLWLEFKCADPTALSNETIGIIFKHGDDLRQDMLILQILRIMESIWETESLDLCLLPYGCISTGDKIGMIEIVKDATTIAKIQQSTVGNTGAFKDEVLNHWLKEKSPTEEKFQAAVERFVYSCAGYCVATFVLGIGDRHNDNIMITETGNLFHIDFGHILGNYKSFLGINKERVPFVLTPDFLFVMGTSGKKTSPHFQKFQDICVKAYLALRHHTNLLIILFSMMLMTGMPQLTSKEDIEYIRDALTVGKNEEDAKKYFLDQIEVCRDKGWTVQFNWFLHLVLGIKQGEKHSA

PI3K-α, sequence (P42336 whole entry, species assumed): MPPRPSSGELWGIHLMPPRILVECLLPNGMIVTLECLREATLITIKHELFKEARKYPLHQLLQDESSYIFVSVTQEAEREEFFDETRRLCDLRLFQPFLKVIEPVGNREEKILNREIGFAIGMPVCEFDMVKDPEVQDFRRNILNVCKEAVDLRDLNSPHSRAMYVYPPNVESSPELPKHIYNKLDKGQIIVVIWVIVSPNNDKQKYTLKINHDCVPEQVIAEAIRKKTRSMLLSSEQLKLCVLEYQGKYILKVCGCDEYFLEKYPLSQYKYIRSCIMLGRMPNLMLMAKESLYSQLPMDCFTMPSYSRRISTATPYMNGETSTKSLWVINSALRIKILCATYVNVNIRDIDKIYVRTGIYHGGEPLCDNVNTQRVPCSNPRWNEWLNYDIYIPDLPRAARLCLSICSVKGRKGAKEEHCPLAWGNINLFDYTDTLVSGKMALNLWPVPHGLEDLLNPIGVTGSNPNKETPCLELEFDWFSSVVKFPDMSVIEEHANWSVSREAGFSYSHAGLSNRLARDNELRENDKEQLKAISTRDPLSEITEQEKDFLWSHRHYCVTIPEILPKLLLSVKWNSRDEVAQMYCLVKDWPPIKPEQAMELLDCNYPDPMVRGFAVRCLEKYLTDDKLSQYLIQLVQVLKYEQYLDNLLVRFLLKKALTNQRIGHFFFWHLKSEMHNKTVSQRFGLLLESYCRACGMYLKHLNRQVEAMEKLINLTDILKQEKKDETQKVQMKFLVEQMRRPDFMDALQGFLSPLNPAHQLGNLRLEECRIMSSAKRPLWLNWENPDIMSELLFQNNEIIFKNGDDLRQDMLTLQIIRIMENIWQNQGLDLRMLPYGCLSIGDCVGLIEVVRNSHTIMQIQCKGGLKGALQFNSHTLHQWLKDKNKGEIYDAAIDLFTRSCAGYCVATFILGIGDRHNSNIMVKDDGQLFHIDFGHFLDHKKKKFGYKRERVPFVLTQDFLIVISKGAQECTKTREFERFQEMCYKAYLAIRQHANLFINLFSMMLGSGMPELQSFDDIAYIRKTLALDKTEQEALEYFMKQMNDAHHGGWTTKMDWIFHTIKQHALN
PI3K-α, sequence (P27986 whole entry partner, species assumed): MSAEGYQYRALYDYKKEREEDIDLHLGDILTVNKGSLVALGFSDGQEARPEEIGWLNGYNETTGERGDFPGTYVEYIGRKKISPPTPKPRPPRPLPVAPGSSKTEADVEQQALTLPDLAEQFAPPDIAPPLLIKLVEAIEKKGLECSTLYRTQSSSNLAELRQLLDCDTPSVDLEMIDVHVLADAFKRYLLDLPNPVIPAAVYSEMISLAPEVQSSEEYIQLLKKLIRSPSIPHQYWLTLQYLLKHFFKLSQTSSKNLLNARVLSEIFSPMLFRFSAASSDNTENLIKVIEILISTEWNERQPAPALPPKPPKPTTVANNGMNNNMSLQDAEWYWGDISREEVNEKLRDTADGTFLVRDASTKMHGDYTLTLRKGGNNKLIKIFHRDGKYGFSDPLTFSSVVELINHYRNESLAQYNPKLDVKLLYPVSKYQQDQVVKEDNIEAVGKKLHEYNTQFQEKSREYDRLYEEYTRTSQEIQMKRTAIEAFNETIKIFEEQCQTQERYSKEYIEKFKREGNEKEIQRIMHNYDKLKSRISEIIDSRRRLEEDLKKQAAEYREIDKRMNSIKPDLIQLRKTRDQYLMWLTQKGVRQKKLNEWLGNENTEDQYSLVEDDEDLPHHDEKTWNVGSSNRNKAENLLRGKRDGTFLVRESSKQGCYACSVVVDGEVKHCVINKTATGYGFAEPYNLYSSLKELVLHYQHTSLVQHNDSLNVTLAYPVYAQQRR
Human mTOR (FLAG-TOR), sequence (P42345 1360-2549 limits assumed): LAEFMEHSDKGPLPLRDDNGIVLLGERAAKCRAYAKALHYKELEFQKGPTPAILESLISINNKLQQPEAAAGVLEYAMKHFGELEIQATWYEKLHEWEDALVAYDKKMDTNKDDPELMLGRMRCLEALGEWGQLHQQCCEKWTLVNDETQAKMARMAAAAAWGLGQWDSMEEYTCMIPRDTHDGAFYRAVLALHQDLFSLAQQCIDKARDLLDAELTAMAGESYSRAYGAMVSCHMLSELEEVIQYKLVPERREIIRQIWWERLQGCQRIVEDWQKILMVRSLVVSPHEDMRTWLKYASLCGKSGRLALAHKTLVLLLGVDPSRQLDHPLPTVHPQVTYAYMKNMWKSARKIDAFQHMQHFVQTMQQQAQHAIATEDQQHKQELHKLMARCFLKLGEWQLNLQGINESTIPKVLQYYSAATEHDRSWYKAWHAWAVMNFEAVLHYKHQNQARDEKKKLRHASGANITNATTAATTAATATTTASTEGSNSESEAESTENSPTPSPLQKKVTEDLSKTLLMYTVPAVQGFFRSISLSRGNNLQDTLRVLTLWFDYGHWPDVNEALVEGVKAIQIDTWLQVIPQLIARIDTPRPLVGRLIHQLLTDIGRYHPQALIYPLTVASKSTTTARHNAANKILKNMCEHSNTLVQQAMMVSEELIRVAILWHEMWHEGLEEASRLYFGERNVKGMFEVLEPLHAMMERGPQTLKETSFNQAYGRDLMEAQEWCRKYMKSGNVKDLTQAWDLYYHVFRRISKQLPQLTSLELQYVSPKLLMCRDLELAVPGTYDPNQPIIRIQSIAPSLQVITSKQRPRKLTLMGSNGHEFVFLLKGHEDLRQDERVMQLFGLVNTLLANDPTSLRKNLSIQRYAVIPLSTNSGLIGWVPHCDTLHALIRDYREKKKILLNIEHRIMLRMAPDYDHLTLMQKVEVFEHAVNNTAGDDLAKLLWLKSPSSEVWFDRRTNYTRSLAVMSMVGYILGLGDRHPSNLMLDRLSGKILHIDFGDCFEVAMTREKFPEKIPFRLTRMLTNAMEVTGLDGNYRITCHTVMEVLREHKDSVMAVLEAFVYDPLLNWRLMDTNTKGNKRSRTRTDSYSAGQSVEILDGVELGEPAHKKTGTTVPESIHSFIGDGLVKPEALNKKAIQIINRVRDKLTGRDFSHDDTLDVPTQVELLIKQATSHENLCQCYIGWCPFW

IC50 (PI3K-α) [nM]	IC50 ([1]; Homo sapiens, LNCaP, 72 h) [nM]	IC50 (Human mTOR (FLAG-TOR))	IC50 (PI3K-γ) [nM]	IC50 (PI3K-α; read-out: IC50 PI3Kα) [nM]	IC50 (PI3K-γ; read-out: IC50 PI3Kγ) [nM]	IC50 (PI3K-α; read-out: IC50 PI3Kα, listed as 358) [nM]	IC50 (PI3K-γ; read-out: IC50 PI3Kγ, listed as 358) [nM]	IC50 ([1]; MTS cell growth assay, three days after drug treatment) [nM]	IC50 (PI3K-α; read-out: IC50 PI3Kα, listed as 335) [nM]	IC50 (PI3K-γ; read-out: IC50 PI3Kγ, listed as 335) [nM]	SMILES
> 10000	850	14 nM	> 10000								COCC(COC)Oc1nc(-c2ccc(NC(=O)NC3CC3)cc2)nc(N2CC3CCC(C2)O3)n1 [Example 178, 1-cyclopropyl-3-(4-{4-[2-methoxy-1-(methoxymethyl)ethoxy]-6-(8-oxa-3-azabicyclo[3.2.1]oct-3-yl)-1,3,5-triazin-2-yl}phenyl)urea]
	1000	19 nM		115	1490						O=C(Nc1ccncc1)Nc1ccc(-c2nc(N3CCNCC3)nc(N3CC4CCC(C3)O4)n2)cc1 [Example 107, 1-(4-(4-(8-oxa-3-azabicyclo[3.2.1]octan-3-yl)-6-(piperazin-1-yl)-1,3,5-triazin-2-yl)phenyl)-3-(pyridin-4-yl)urea]
	5200	1.2 nM		300	9500						CN1CCN(c2nc(-c3ccc(NC(=O)Nc4cccnc4)cc3)nc(N3CC4CCC(C3)O4)n2)C1 [Example 171, 1-{4-[4-(3-methylimidazolidin-1-yl)-6-(8-oxa-3-azabicyclo[3.2.1]oct-3-yl)-1,3,5-triazin-2-yl]phenyl}-3-pyridin-3-ylurea]
	420	6.4 nM		902	8770						CNC(=O)Nc1ccc(-c2nc(NC(C)C)nc(N3CC4CCC(C3)O4)n2)cc1 [Example 212, 1-methyl-3-(4-{4-[(1-methylethyl)amino]-6-(8-oxa-3-azabicyclo[3.2.1]oct-3-yl)-1,3,5-triazin-2-yl}phenyl)urea]
		37 nM		1730	7490			100			O=C(Nc1ccc(-c2nc(N3C[C@@H]4C[C@H]3CO4)nc(N3C[C@@H]4C[C@H]3CO4)n2)cc1)Nc1ccc(N2CCNCC2)cc1 [Example 313, 1-{4-[4,6-di-(1S,4S)-2-oxa-5-azabicyclo[2.2.1]hept-5-yl-1,3,5-triazin-2-yl]phenyl}-3-(4-piperazin-1-ylphenyl)urea]
	220	4.4 nM and 4 nM		80	1450				81	144	CN1CCN(c2ccc(Nc3nc(-c4ccc(NC(=O)Nc5ccccc5)cc4)nc(N4CC5CCC(C4)O5)n3)cc2)CC1 [Example 319, 1-{4-[4-{[4-(4-methylpiperazin-1-yl)phenyl]amino}-6-(8-oxa-3-azabicyclo[3.2.1]oct-3-yl)-1,3,5-triazin-2-yl]phenyl}-3-phenylurea]
	700	2.9 nM		2670							CC(C)Nc1nc(-c2ccc(NC(=O)NCCO)cc2)nc(N2CC3CCC(C2)O3)n1 [Example 214, 1-(2-hydroxyethyl)-3-(4-{4-[(1-methylethyl)amino]-6-(8-oxa-3-azabicyclo[3.2.1]oct-3-yl)-1,3,5-triazin-2-yl}phenyl)urea]
	190	2.5 nM		680							CNC(=O)Nc1ccc(-c2nc(N3CC4CCC(C3)O4)nc(N3CC4CCC(C3)O4)n2)cc1 [Example 26, 1-[4-(4,6-di-8-oxa-3-azabicyclo[3.2.1]oct-3-yl-1,3,5-triazin-2-yl)phenyl]-3-methylurea]
	420	9.5 nM		5280							CC(C)Nc1nc(-c2ccc(NC(=O)NC3CC3)cc2)nc(N2CC3CCC(C2)O3)n1 [Example 213, 1-cyclopropyl-3-(4-{4-[(1-methylethyl)amino]-6-(8-oxa-3-azabicyclo[3.2.1]oct-3-yl)-1,3,5-triazin-2-yl}phenyl)urea]
	30000	31 nM		1330							O=C(O)CNC1CCN(c2nc(-c3ccc(NC(=O)Nc4ccncc4)cc3)nc(N3CC4CCC(C3)O4)n2)CC1 [Example 128, 2-(1-(4-(8-oxa-3-azabicyclo[3.2.1]octan-3-yl)-6-(4-(3-pyridin-4-ylureido)phenyl)-1,3,5-triazin-2-yl)piperidin-4-ylamino)acetic acid]

Further lines, the compound ahead of its results:

SMILES	IC50 (PI3K-α) [nM]	IC50 ([1]; Homo sapiens, LNCaP, 72 h) [nM]	IC50 (Human mTOR (FLAG-TOR))	IC50 (PI3K-γ) [nM]	IC50 (PI3K-α; read-out: IC50 PI3Kα) [nM]	IC50 (PI3K-γ; read-out: IC50 PI3Kγ) [nM]	IC50 (PI3K-α; read-out: IC50 PI3Kα, listed as 358) [nM]	IC50 (PI3K-γ; read-out: IC50 PI3Kγ, listed as 358) [nM]	IC50 ([1]; MTS cell growth assay, three days after drug treatment) [nM]	IC50 (PI3K-α; read-out: IC50 PI3Kα, listed as 335) [nM]	IC50 (PI3K-γ; read-out: IC50 PI3Kγ, listed as 335) [nM]
CC(C)Nc1nc(-c2ccc(NC(=O)Nc3ccc(CN4CCN(C)CC4)cc3)cc2)nc(N2C3CCC2COC3)n1 [Example 379, 1-(4-(4-(3-oxa-8-azabicyclo[3.2.1]octan-8-yl)-6-(isopropylamino)-1,3,5-triazin-2-yl)phenyl)-3-(4-((4-methylpiperazin-1-yl)methyl)phenyl)urea]		140	7.3 nM		4750	5260					
CC(C)Nc1nc(-c2ccc(NC(=O)Nc3ccc(C(=O)NN(C)C)cc3)cc2)nc(N2CC3CCC(C2)O3)n1 [Example 218, 1-{4-[(2,2-dimethylhydrazino)carbonyl]phenyl}-3-(4-{4-[(1-methylethyl)amino]-6-(8-oxa-3-azabicyclo[3.2.1]oct-3-yl)-1,3,5-triazin-2-yl}phenyl)urea]		12	2.6 nM		279	2780					
CN1CCN(CC(=O)Nc2ccc(NC(=O)Nc3ccc(-c4nc(N5C6CCC5COC6)nc(N5C6CCC5COC6)n4)cc3)cc2)CC1 [Example 374, N-(4-(3-(4-(4,6-di(3-oxa-8-azabicyclo[3.2.1]octan-8-yl)-1,3,5-triazin-2-yl)phenyl)ureido)phenyl)-2-(4-methylpiperazin-1-yl)acetamide]		< 0.8	0.14 nM		64	3920					
NC(=O)c1ccc(NC(=O)Nc2ccc(-c3nc(Nc4ccc(N5CCNCC5)cc4)nc(N4CC5CCC(C4)O5)n3)cc2)cc1 [Example 329, 4-{[(4-{4-(8-oxa-3-azabicyclo[3.2.1]oct-3-yl)-6-[(4-piperazin-1-ylphenyl)amino]-1,3,5-triazin-2-yl}phenyl)carbamoyl]amino}benzamide]		5900	0.68 nM		9.5	385	9	363			
CN1CCN(c2nc(-c3ccc(NC(=O)Nc4ccncc4)cc3)nc(N3CC4CCC(C3)O4)n2)CC1 [Example 108, 1-{4-[4-(4-methylpiperazin-1-yl)-6-(8-oxa-3-azabicyclo[3.2.1]oct-3-yl)-1,3,5-triazin-2-yl]phenyl}-3-pyridin-4-ylurea]		320	19 nM		586	4150					
CC(C)N(C)c1nc(-c2ccc(NC(=O)Nc3ccc(OCCN(C)C)cc3)cc2)nc(N2C3CCC2COC3)n1 [Example 391, 1-(4-(4-(3-oxa-8-azabicyclo[3.2.1]octan-8-yl)-6-(isopropyl(methyl)amino)-1,3,5-triazin-2-yl)phenyl)-3-(4-(2-(dimethylamino)ethoxy)phenyl)urea]		300	9.6 nM		2400	4000					
CC(C)Nc1nc(-c2ccc(NC(=O)Nc3ccc(CN)cc3)cc2)nc(N2C3CCC2COC3)n1 [Example 382, 1-(4-(4-(3-oxa-8-azabicyclo[3.2.1]octan-8-yl)-6-(isopropylamino)-1,3,5-triazin-2-yl)phenyl)-3-(4-(aminomethyl)phenyl)urea]		48	4.5 nM		522	4310					
CC(C)Nc1nc(-c2ccc(NC(=O)Nc3ccncc3)cc2)nc(N2CC3CCC(C2)O3)n1 [Example 215, 1-(4-{4-[(1-methylethyl)amino]-6-(8-oxa-3-azabicyclo[3.2.1]oct-3-yl)-1,3,5-triazin-2-yl}phenyl)-3-pyridin-4-ylurea]		30	1.2 nM		187	3160					
O=C(Nc1ccncc1)Nc1ccc(-c2nc(N3CCC(NCCO)CC3)nc(N3CC4CCC(C3)O4)n2)cc1 [Example 123, 1-(4-(4-(8-oxa-3-azabicyclo[3.2.1]octan-3-yl)-6-(4-(2-hydroxyethylamino)piperidin-1-yl)-1,3,5-triazin-2-yl)phenyl)-3-(pyridin-4-yl)urea]		4100	115 nM		760	6350					
O=C(Nc1ccncc1)Nc1ccc(-c2nc(C3=CCOCC3)nc(N3C4CCC3COC4)n2)cc1 [Example 404, 1-(4-(4-(3-oxa-8-azabicyclo[3.2.1]octan-8-yl)-6-(3,6-dihydro-2H-pyran-4-yl)-1,3,5-triazin-2-yl)phenyl)-3-(pyridin-4-yl)urea]		60	0.69 nM		63	433					
NCc1ccc(NC(=O)Nc2ccc(-c3nc(N4C5CCC4COC5)nc(N4C5CCC4COC5)n3)cc2)cc1 [Example 368, 1-(4-(aminomethyl)phenyl)-3-(4-(4,6-di(3-oxa-8-azabicyclo[3.2.1]octan-8-yl)-1,3,5-triazin-2-yl)phenyl)urea]		0.7	0.68 nM		109	1940					
O=C(Nc1ccc(CN2CCCC2)cc1)Nc1ccc(-c2nc(N3C4CCC3COC4)nc(N3C4CCC3COC4)n2)cc1 [Example 369, 1-(4-(4,6-di(3-oxa-8-azabicyclo[3.2.1]octan-8-yl)-1,3,5-triazin-2-yl)phenyl)-3-(4-(pyrrolidin-1-ylmethyl)phenyl)urea]		3	1.3 nM		362	2560					
NCCCNc1nc(-c2ccc(NC(=O)Nc3cccnc3)cc2)nc(N2CC3CCC(C2)O3)n1 [Example 156, 1-(4-{4-[(3-aminopropyl)amino]-6-(8-oxa-3-azabicyclo[3.2.1]oct-3-yl)-1,3,5-triazin-2-yl}phenyl)-3-pyridin-3-ylurea]		22000	53 nM		746						
O=C(Nc1ccc(-c2nc(NCCO)nc(N3CC4CCC(C3)O4)n2)cc1)Nc1cccnc1 [Example 153, 1-(4-{4-[(2-hydroxyethyl)amino]-6-(8-oxa-3-azabicyclo[3.2.1]oct-3-yl)-1,3,5-triazin-2-yl}phenyl)-3-pyridin-3-ylurea]		4200	15 nM		868						
